Assay results published in patent publication US6410525B1, “Carbapenem derivatives, utilization thereof and intermediate compounds of the same” (Kyoto Pharmaceutical Industries, Ltd., priority 1998, dated 2002).

Experiment: Oral absorption test: concentration of hydrolyzed carbapenem compound (A) in plasma after oral administration
Format: in vivo
Conditions: mice, 100 mg/kg orally, hydrolyzed carbapenem compound (A) by HPLC
Protocol: The compound of the present invention (100 mg/kg, compound of Example 13) was orally administered to mice (3 per group) and the concentration of hydrolyzed carbapenem compound (A) in plasma was determined at 0.25, 0.5, 1.0, 2.0 and 3.0 hours later by HPLC.
The compound of the present invention (100 mg/kg, compound of Example 15) was orally administered to mice (3 per group) and the concentration of hydrolyzed carbapenem compound (A) in plasma was determined at 0.25, 0.5, 1.0, 2.0 and 3.0 hours later by HPLC.

Row | Average concentration in plasma (0.25 hr) | Average concentration in plasma (0.5 hr) | Average concentration in plasma (1.0 hr) | Average concentration in plasma (2.0 hr) | Average concentration in plasma (3.0 hr) | Structure (SMILES)
1 | 8.6 µg/mL | 10.1 µg/mL | 4.8 µg/mL | 1.4 µg/mL | 0.3 µg/mL | CC(C)C(=O)OCOC(=O)N1C[C@@H](SC2=C(C(=O)OCOC(=O)C(C)(C)C)N3C(=O)[C@H]([C@@H](C)O)[C@H]3[C@H]2C)C[C@H]1C(=O)N(C)C [Example 15, pivaloyloxymethyl (1R,5S,6S)-2-[(3S,5S)-(5-N,N-dimethylaminocarbonyl-1-isobutyryloxymethyloxycarbonyl)pyrrolidin-3-ylthio]-6-[(1R)-1-hydroxyethyl]-1-methylcarbapen-2-em-3-carboxylate]
2 | 9.5 µg/mL | 4.8 µg/mL | 1.9 µg/mL | 0.6 µg/mL | 0.2 µg/mL | CCC(=O)OCOC(=O)N1C[C@@H](SC2=C(C(=O)OCOC(=O)C(C)(C)C)N3C(=O)[C@H]([C@@H](C)O)[C@H]3[C@H]2C)C[C@H]1C(=O)N(C)C [Example 13]
